Structures are written as SMILES.

In the experiment the target is T1, Human Polθ polymerase domain (aa1820-2590) (Homo sapiens, UniProt O75417).
T1 construct: Human Polθ polymerase domain (aa1820-2590) was expressed in E. Coli; made in house; host or cells: E. coli
T1 sequence (O75417 1820-2590): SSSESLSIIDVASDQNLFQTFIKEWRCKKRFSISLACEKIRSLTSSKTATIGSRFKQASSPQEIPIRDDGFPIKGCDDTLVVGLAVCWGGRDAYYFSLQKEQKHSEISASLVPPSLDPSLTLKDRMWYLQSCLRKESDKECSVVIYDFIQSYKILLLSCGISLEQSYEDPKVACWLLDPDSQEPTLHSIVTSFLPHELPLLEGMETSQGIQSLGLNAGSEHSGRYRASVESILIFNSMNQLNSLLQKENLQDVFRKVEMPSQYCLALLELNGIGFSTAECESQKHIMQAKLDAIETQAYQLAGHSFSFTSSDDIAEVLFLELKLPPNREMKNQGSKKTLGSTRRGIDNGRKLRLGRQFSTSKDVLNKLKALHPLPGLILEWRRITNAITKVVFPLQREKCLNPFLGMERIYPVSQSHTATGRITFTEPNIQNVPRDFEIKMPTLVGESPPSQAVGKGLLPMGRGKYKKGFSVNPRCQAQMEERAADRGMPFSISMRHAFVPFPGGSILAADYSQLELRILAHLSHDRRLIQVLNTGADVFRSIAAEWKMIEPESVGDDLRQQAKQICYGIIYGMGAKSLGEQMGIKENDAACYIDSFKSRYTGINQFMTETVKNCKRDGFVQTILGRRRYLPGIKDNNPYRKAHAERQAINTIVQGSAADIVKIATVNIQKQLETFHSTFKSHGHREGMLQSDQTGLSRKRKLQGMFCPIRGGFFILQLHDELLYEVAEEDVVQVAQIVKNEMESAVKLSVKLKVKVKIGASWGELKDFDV
In words: Polθ Polymerase Domain Kinact/Kl Assay (PicoGreen). The conditions noted are these: covalent inhibitors, kobs vs [I] fit, 0.8 nM Polθ, 100 nM DNA substrate, read-out: Kinact/KI. Format: biochemical. How it is done: Polθ Polymerase Domain Kinact/Kl Assay
A PicoGreen assay was used to measure the Kinact and Kl values of covalent compounds that inhibit the activity of Polθ in vitro.
Human Polθ polymerase domain (aa1820-2590) was expressed in E. Coli, purified, aliquoted and stored at −80° C. until required. Polθ substrate was generated from a 1.2:1 mix of DNA II Short to DNA II Long to give a final concentration of […] substrate in annealing buffer (20 mM Tris pH 7.5, 50 mM NaCl). The substrate was heated in 50 mL aliquots to 95° C. in a heating block for 5 min before the heating block switched off, the reaction left to cool to rt and stored at −20° C. until required.
Assay measurements were performed with 1× buffer comprising 25 mM Tris pH 7.5, 12.5 mM NaCl, […], 5% (v/v) glycerol, 0.01% v/v Triton x-100, 0.1 mg/ml BSA, 1 mM DTT. Test compounds were prepared by dilution in 100% DMSO to give a 12 μM intermediate stock of each (100× final top concentration). 100 nL of 23× 1:1.5-fold serial dilutions and a DMSO only control were dispensed using the Tecan dispenser into Greiner 384 well black low volume plates (product code 784076). DMSO concentration was maintained at 1% of the final assay volume by back filling with DMSO.
2× Working stock of substrate (200 nM of DNA substrate and […] dNTPs) and enzyme (1.4 nM Polθ) were made up in assay buffer. 5 μL/well of both enzyme and substrate 2× solutions were dispensed using a Tempest dispenser (Formulatrix) into assay plates that had been pre-dispensed with compound to give a final assay concentration of 100 nM DNA substrate, […] dNTPs and 0.8 nM Polθ. To stop the reaction, […] of a solution containing 25 mM Tris-HCl pH 7.5 and 20 mM EDTA was added at […] (t=0, 2.5, 5, 7.5, 10, 12.5, 15, 20, 25, 30, 35, 40, 45, 50, 55 and 60 min) using the Tempest's time delay function. The plates were covered during the time course to prevent evaporation. After completing the assay, 5 μL of detection reagent (25 mM Tris-HCl pH 7.5 and 2.5% (v/v) PicoGreen) was dispensed into the wells using a Tempest liquid handler (Formulatrix) and plates subsequently read on the CLARIOstar Plus (BMG Labtech) using the default optical settings for fluorescein and the auto gain/focus settings.
All data analysis was carried out using GraphPad Prism V. 8 (GraphPad Software Inc, San Diego, CA) Time course data for each inhibitor concentration was fitted to equation 1 to determine kobs values.^1 Any time points where the control (DMSO alone) reaction was no longer linear were excluded from the analysis.
A secondary plot of kobs vs [I] is used to determine the Kinact and Kl parameters (for a 2-step covalent inhibitor) by fitting to equation 2.1
[formula] • 1) Evaluation of Enzyme Inhibitors in Drug Discovery (Ch9), R. A Copeland, Wiley, 2nd Edition 2013.
Turning to `C=CC(=O)N1CC(N2CCN(CCN3CC[C@H](Nc4nc(C)cc(C(F)(F)F)c4C#N)C(=O)N(C)c4ccccc43)CC2)C1` [Example 20, (S)-2-((6-(2-(4-(1-Acrylo-ylazetidin-3-yl)piperazin-1-yl)ethyl)-1-methyl-2-oxo-1,2,3,4,5,6-hexa-hydrobenzo[b][1,4]diazocin-3-yl)amino)-6-methyl-4-(trifluorometh-yl)nicotinonitrile], the kinact/KI was 500000 M⁻¹ s⁻¹.

As to `C=CC(=O)N1CC2(CN(CCN3CC[C@H](Nc4nc(C)cc(C(F)(F)F)c4C#N)C(=O)N(C)c4ccccc43)CCO2)C1` [Example 21, (S)-2-((6-(2-(2-Acryloyl-5-oxa-2,8-diazaspiro[3.5]nonan-8-yl)ethyl)-1-meth-yl-2-oxo-1,2,3,4,5,6-hexa-hydrobenzo[b][1,4]diazocin-3-yl)amino)-6-methyl-4-(trifluorometh-yl)nicotinonitrile], the kinact/KI is 1.2e+06 M⁻¹ s⁻¹.

Regarding `C=CC(=O)N1CC2(CN(CCN3CC[C@H](Nc4nc(C)cc(C(F)(F)F)c4C#N)C(=O)N(C)c4ccccc43)C2)C1` [Example 22, (S)-2-((6-(2-(6-Acryloyl-2,6-diazaspiro[3.3]heptan-2-yl)ethyl)-1-methyl-2-oxo-1,2,3,4,5,6-hexa-hydrobenzo[b][1,4]diazocin-3-yl)amino)-6-methyl-4-(trifluorometh-yl)nicotinonitrile], the kinact/KI amounted to 500000 M⁻¹ s⁻¹.

For the compound `C=CC(=O)N1CC2(CN(CCN3CC[C@H](Nc4nc(C)cc(C(F)(F)F)c4C#N)C(=O)N(C)c4cccc(F)c43)CCN2)C1` [Example 23, (S)-2-((6-(2-(2-Acryloyl-2,5,8-triazaspiro[3.5]nonan-8-yl)ethyl)-7-fluoro-1-methyl-2-oxo-1,2,3,4,5,6-hexahydrobenzo[b][1,4]diazocin-3-yl)amino)-6-methyl-4-(trifluoromethyl)nicotinonitrile], the kinact/KI worked out at 940000 M⁻¹ s⁻¹.

Take `Cc1cc(C(F)(F)F)c(C#N)c(N[C@H]2CCN(CCN3CC4(CN(C(=O)/C=C/CN(C)C)C4)OC3=O)c3c(F)cccc3N(C)C2=O)n1` [Example 24, (S,E)-2-((6-(2-(2-(4-(Dimethylamino)but-2-enoyl)-6-oxo-5-oxa-2,7-diazaspiro[3.4]octan-7-yl)ethyl)-7-fluoro-1-methyl-2-oxo-1,2,3,4,5,6-hexahydrobenzo[b][1,4]diazocin-3-yl)amino)-6-methyl-4-(trifluoromethyl)nicotinonitrile]: the kinact/KI was determined as 630000 M⁻¹ s⁻¹.

With `C#CCN1CCN(CCN2CC[C@H](Nc3nc(C)cc(C(F)(F)F)c3C#N)C(=O)N(C)c3cccc(F)c32)CC12CN(C(=O)C=C)C2` [Example 25, (S)-2-((6-(2-(2-Acryloyl-5-(prop-2-yn-1-yl)-2,5,8-triazaspiro[3.5]nonan-8-yl)ethyl)-7-fluoro-1-methyl-2-oxo-1,2,3,4,5,6-hexahydrobenzo[b][1,4]diazocin-3-yl)amino)-6-methyl-4-(trifluoromethyl)nicotinonitrile], the kinact/KI worked out at 1.6e+06 M⁻¹ s⁻¹.

Turning to `C#CCN1CCN(CCN2CC[C@H](Nc3nc(C)cc(C(F)(F)F)c3C#N)C(=O)N(C)c3cccc(F)c32)CC12CN(C(=O)/C=C/CN(C)C)C2` [Example 26, (S,E)-2-((6-(2-(2-(4-(Dimethylamino)but-2-enoyl)-5-(prop-2-yn-1-yl)-2,5,8-triazaspiro[3.5]nonan-8-yl)ethyl)-7-fluoro-1-methyl-2-oxo-1,2,3,4,5,6-hexahydrobenzo[b][1,4]diazocin-3-yl)amino)-6-methyl-4-(trifluoromethyl)nicotinonitrile], the kinact/KI is 2.1e+06 M⁻¹ s⁻¹.

`C#CCOC(=O)N1CCN(CCN2CC[C@H](Nc3nc(C)cc(C(F)(F)F)c3C#N)C(=O)N(C)c3cccc(F)c32)CC12CN(C(=O)/C=C/CN(C)C)C2` [Example 27, (S,E)-Prop-2-yn-1-yl 8-(2-(4-((3-cyano-6-methyl-4-(trifluoromethyl)pyridin-2-yl)amino)-10-fluoro-6-methyl-5-oxo-3,4,5,6-tetrahydrobenzo[b][1,4]diazocin-1(2H)-yl)ethyl)-2-(4-(dimethylamino)but-2-enoyl)-2,5,8-triazaspiro[3.5]nonane-5-carboxylate]: the kinact/KI was 940000 M⁻¹ s⁻¹.

On to `Cc1cc(C(F)(F)F)c(C#N)c(N[C@H]2CCN(CCN(C)C(=O)C3CN(C(=O)/C=C/CN(C)C)C3)c3c(F)cccc3N(C)C2=O)n1` [Example 29, (S,E)-N-(2-(4-((3-Cyano-6-methyl-4-(trifluoromethyl)pyridin-2-yl)amino)-10-fluoro-6-methyl-5-oxo-3,4,5,6-tetrahydrobenzo[b][1,4]diazocin-1(2H)-yl)ethyl)-1-(4-(dimethylamino)but-2-enoyl)-N-methylazetidine-3-carboxamide], for which the kinact/KI was 1.2e+06 M⁻¹ s⁻¹.

Regarding `Cc1cc(C(F)(F)F)c(C#N)c(N[C@H]2CCN(CCN(C)C(=O)[C@@H]3CCN(C(=O)/C=C/CN(C)C)C3)c3ccccc3N(C)C2=O)n1` [Example 30, (R)—N-(2-((S)-4-((3-Cyano-6-methyl-4-(trifluoromethyl)pyridin-2-yl)amino)-6-methyl-5-oxo-3,4,5,6-tetrahydrobenzo[b][1,4]diazocin-1(2H)-yl)ethyl)-1-((E)-4-(dimethylamino)but-2-enoyl)-N-methylpyrrolidine-3-carboxamide], the kinact/KI was 690000 M⁻¹ s⁻¹.

`Cc1cc(C(F)(F)F)c(C#N)c(N[C@H]2CCN(CCN(C)C(=O)C3CN(C(=O)/C=C/CN(C)C)C3)c3ccccc3N(C)C2=O)n1` [Example 31, (S,E)-N-(2-(4-((3-Cyano-6-methyl-4-(trifluoromethyl)pyridin-2-yl)amino)-6-methyl-5-oxo-3,4,5,6-tetrahydrobenzo[b][1,4]diazocin-1(2H)-yl)ethyl)-1-(4-(dimethylamino)but-2-enoyl)-N-methylazetidine-3-carboxamide]: the kinact/KI turned out to be 920000 M⁻¹ s⁻¹.

As to `C=CC(=O)N1CCN(CC(O)CN2CC[C@H](Nc3nc(C)cc(C(F)(F)F)c3C#N)C(=O)N(C)c3ccccc32)CC1` (stereo partly drawn) [Example 35, 2-(((3S)-6-(3-(4-Acryloylpiperazin-1-yl)-2-hydroxypropyl)-1-methyl-2-oxo-1,2,3,4,5,6-hexahydrobenzo[b][1,4]diazocin-3-yl)amino)-6-methyl-4-(trifluoromethyl)nicotinonitrile], the kinact/KI worked out at 340000 M⁻¹ s⁻¹.

Consider `C=CC(=O)N1CC2(CN(CC(O)CN3CC[C@H](Nc4nc(C)cc(C(F)(F)F)c4C#N)C(=O)N(C)c4ccccc43)C2)C1` (stereo partly drawn) [Example 36, 2-(((3S)-6-(3-(6-Acryloyl-2,6-diazaspiro[3.3]heptan-2-yl)-2-hydroxypropyl)-1-methyl-2-oxo-1,2,3,4,5,6-hexahydrobenzo[b][1,4]diazocin-3-yl)amino)-6-methyl-4-(trifluoromethyl)nicotinonitrile], for which the kinact/KI was determined as 360000 M⁻¹ s⁻¹.

Turning to `C=CC(=O)N1CCN(CCCN2CC[C@H](Nc3nc(C)cc(C(F)(F)F)c3C#N)C(=O)N(C)c3cccc(F)c32)CC1` [Example 37, (S)-2-((6-(3-(4-Acryloylpiperazin-1-yl)propyl)-7-fluoro-1-methyl-2-oxo-1,2,3,4,5,6-hexahydrobenzo[b][1,4]diazocin-3-yl)amino)-6-methyl-4-(trifluoromethyl)nicotinonitrile], the kinact/KI was determined as 340000 M⁻¹ s⁻¹.

Source of the values: US20250241926A1, “HETEROCYCLIC COMPOUNDS FOR USE IN THE TREATMENT OF CANCER” (ARTIOS PHARMA LIMITED, priority 2021, published 2025).
